In assay [1] the test system is myosin ATPase, Porcine Atria myofibrils. Kind of assay: Myofibril ATPase assay, porcine atria myofibrils. The conditions noted are these: concentration required to reduce myosin ATP-ase activity by 25%; Porcine Atria Prep pCa 25 GEOM_MEAN. The class given is biochemical.
Assay [2] concerns the target T1, myosin ATPase, Porcine Ventricle myofibrils (Sus scrofa, UniProt P79293).
T1 construct: Myofibrils from porcine cardiac muscle was isolated from the left ventricle of Yucatan minipigs; tissue Exemplar Genetics; host or cells: left ventricle of Yucatan minipigs, myofibrils
Description: Myofibril ATPase assay, porcine ventricle myofibrils. The class given is biochemical, porcine (Yucatan minipigs). The conditions noted are these: concentration required to reduce myosin ATP-ase activity by 25%; Porcine Ventricle Prep pCa 25 GEOM_MEAN. The protocol:
(§1) Myofibril ATPase assays are known in the art to be useful in evaluating small molecules for the treatment of HCM and other cardiac indications. Myosin ATPase activity is assessed by using a coupled reaction system, in which ADP generated by the myosin ATPase function is coupled to the disappearance of NADH through the pyruvate kinase/lactate dehydrogenase (PK-LDH) system. ATPase activity produces ADP, which is used as a substrate for PK to produce pyruvate and regenerate ATP. The pyruvate is then used as a substrate by LDH to oxidize NADH to NAD+. The rate of the reaction is monitored through the time-dependent disappearance of NADH using absorbance at 340 nm, which, when the couple system is in stoichiometric excess, is directly correlated to the ATPase activity of the myosin. Inhibition of ATPase activity by the assayed compounds is indicated by a reduced rate of NADH loss, relative to vehicle-treated controls, over the experimental time window. Porcine Ventricle are the primary sources of myofibril material.
(§2) Materials: The following stock solutions and reagents were used in the Myofibril ATPase Assay: Stock Solutions; PIPES, 200 mM and 120 mM in H2O, pH 7.0; MgCl2 in H2O, 200 mM; PM12 Buffer, 10×: 120 mM PIPES (from 200 mM stock), 20 mM MgCl2 (from 200 mM stock); PBS Buffer, 1X: 135 mM NaCl, […], 10 mM Na(PO4)2, 1.8 mM K2(PO4), pH 7.4; EGTA in H2O, 250 mM; CaCl2) in H2O, 500 mM; DTT in H2O, 1 M; BSA in H2O, 10 mg/mL; ATP in 1×PBS, 50 mM; NADH in 1X PM12 and 1 mM DTT, 26 mM; PEP in 1X PM12, 78 mM, pH 7.0.
(§3) Stock Solutions of pCa buffer. Combine PIPES, CaCl2, and EGTA solutions with water. Adjust pH to 7.0 and bring final volume to 100 mL.
(§4) Buffer A & Buffer B. Prepare buffers A and B according to the table below.
(§5) Myofibril ATPase Assay Procedure: BSA, ATP, NADH, PEP, and DTT solutions were thawed at room temperature, then transferred to ice. Pellet-frozen myofibrils were transferred with approximately twice the required volume into a sufficiently large tube and capped. Myofibrils were thawed by rolling in a water bath for approximately 15 min at room temperature and cooled on ice. Buffers A and B were prepared by adjusting volumes as necessary for required number of wells and stored on ice. 0.5 μL of the compounds to be assayed were added into wells. 25 μL of Buffer A was dispensed into the wells, followed by 25 μL of Buffer B. The wells were measured for absorbance at 340 nm, using a kinetic protocol in which the wells are read every 1.5-2 min for 75 min. Assay data analysis was performed using a python script that filtered the raw data to retain those points falling between a starting and ending time and between a maximum and minimum absorbance, then used the filtered time-domain 340 nm absorbance data in each well to calculate a slope via linear regression analysis in units of mAU/min. Compound slopes were normalized between 100% and 0% activity, where 100% represented the slope of wells containing only compound vehicle, and fit to a 4-parameter logistic model. In addition to the fit parameters, the EC25% values were calculated, relative to the 100% normalized value. Additionally, the Y125 values were calculated for compounds that increased myosin ATP-ase activity. Fit parameters, calculated effective concentrations, filtered raw data, and calculated slopes were exported, in addition to compound-specific graphs of normalized ATPase activity versus concentration in μM. Each value reported in Table 8 is either a Y75 value or a Y125 value. Values without pound sign, #, are Y75 values, which reflect the concentration required to reduce myosin ATP-ase activity by 25% (e.g., Y-axis activity value is 75% of initial value), relative to myosin ATP-ase activity in the absence of exogenous compound. […]

Assay [3] relates to myosin ATPase, Rabbit Psoas myofibrils. Description: Myofibril ATPase assay, rabbit psoas (skeletal) myofibrils. The class given is biochemical. Particulars: Rabbit Psoas Prep pCa 25 GEOM_MEAN; for Rabbit Psoas EC25 (Y75 value): concentration required to reduce myosin ATP-ase activity by 25%. The protocol:
[Worded in the source for another species; this species is reported under the same test.] as §1, §2, §3, §4, §5

SMILES strings stand for the structures.

T1 sequence (P79293 whole entry): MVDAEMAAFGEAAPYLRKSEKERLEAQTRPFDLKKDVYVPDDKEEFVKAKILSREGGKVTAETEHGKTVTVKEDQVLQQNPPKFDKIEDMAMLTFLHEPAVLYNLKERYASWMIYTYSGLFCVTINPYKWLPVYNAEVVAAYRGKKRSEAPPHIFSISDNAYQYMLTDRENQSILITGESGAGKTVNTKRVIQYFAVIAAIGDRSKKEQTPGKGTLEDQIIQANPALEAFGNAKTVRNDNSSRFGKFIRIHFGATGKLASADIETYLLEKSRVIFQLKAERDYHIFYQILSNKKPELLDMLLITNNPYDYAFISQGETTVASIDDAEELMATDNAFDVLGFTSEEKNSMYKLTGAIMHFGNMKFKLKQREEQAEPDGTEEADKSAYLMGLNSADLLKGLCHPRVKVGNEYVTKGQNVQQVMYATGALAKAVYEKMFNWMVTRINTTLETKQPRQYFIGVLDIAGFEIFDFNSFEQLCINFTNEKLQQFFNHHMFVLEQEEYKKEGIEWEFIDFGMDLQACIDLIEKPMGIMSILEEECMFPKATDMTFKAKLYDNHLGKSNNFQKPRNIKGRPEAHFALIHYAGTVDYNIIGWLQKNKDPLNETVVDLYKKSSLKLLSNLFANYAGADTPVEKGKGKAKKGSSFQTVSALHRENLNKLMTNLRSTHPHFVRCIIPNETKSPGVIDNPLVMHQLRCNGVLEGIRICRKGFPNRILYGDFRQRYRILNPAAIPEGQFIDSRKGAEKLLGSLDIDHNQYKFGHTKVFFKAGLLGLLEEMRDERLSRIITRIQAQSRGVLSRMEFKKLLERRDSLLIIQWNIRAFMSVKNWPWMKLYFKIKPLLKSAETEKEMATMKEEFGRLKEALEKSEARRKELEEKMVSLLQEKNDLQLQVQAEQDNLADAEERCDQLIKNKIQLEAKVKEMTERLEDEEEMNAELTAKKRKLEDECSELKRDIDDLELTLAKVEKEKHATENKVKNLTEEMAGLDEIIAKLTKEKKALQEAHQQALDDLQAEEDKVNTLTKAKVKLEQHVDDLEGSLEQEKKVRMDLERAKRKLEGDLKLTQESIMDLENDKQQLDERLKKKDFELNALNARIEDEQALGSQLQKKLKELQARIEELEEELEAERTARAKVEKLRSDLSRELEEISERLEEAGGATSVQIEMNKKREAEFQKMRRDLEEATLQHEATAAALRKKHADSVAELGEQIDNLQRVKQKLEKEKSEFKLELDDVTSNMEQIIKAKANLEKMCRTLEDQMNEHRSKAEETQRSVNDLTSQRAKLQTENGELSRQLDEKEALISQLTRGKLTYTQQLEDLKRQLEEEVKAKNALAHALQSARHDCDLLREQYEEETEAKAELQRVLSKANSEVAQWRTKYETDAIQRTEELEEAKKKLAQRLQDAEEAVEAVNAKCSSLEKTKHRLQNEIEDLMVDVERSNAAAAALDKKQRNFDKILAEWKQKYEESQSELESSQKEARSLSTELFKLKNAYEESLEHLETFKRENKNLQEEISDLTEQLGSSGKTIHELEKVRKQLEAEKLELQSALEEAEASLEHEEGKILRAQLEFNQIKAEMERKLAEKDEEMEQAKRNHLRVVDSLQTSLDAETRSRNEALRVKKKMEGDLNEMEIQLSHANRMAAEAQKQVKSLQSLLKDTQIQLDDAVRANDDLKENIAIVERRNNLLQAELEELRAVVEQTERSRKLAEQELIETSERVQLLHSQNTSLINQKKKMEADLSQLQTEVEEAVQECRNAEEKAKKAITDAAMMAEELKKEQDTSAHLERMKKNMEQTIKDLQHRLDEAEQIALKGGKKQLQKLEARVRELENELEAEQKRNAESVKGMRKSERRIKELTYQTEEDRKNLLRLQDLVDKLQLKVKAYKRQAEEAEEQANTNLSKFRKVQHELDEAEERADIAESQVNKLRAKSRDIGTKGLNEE

For `CC(C)C[C@H](C(=O)N[C@@H](C)c1ccc(F)cc1F)n1c(=O)[nH]c2ccccc2c1=O` (single isomer, unassigned) [Compound 32], in assay [1], the “Porcine Atria EC25 (Y75 value)” value turned out to be 68.73 µM. The “Porcine Ventricle EC25 (Y75 value)” value in assay [2] came to 100 µM. Moreover, in assay [3] (concentration required to increase myosin ATP-ase activity by 25%), the “Rabbit Psoas Y125 value (marked #)” value is recorded as 7.64^#^ μM.
Regarding `O=C(Cn1c(=O)[nH]c2ccccc2c1=O)N[C@H]1CCCc2cc(F)cc(F)c21` (single isomer, unassigned) [Compound 55], the “Porcine Atria EC25 (Y75 value)” value in assay [1] came out at 100 µM. Besides, in assay [2], the “Porcine Ventricle EC25 (Y75 value)” value was determined as 100 µM. Further, in assay [3], the “Rabbit Psoas EC25 (Y75 value)” value came to 100 µM.
`O=C(Cn1c(=O)[nH]c2ccccc2c1=O)NC(CO)c1ccc(F)cc1F` (centres unmarked) [Compound 87, N-(1-(2,4-difluorophenyl)-2-hydroxyethyl)-2-(2,4-dioxo-1,4-dihydroquinazolin-3(2H)-yl)acetamide]: the “Porcine Atria EC25 (Y75 value)” value in assay [1] came out at 5.405 µM. In addition, the “Porcine Ventricle EC25 (Y75 value)” value in assay [2] worked out at 100 µM. The “Rabbit Psoas EC25 (Y75 value)” value in assay [3] is 0.817 µM.
`Cc1ccc(C(NC(=O)Cn2c(=O)[nH]c3ccccc3c2=O)c2ccccc2)cc1C` (centres unmarked) [Compound 516, N-((3,4-dimethylphenyl)(phenyl)methyl)-2-(2,4-dioxo-1,4-dihydroquinazolin-3(2H)-yl)acetamide]: the “Porcine Atria EC25 (Y75 value)” value in assay [1] is 100 µM. The “Porcine Ventricle EC25 (Y75 value)” value in assay [2] came to 100 µM. Also, the “Rabbit Psoas EC25 (Y75 value)” value in assay [3] is 100 µM.
Regarding `CC(NC(=O)Cn1c(=O)[nH]c2ccccc2c1=O)c1ccco1` (centres unmarked) [Compound 604, 2-(2,4-dioxo-1,4-dihydroquinazolin-3(2H)-yl)-N-(1-(furan-2-yl)ethyl)acetamide], the “Porcine Atria EC25 (Y75 value)” value in assay [1] was 100 µM. The “Porcine Ventricle EC25 (Y75 value)” value in assay [2] was 100 µM. In assay [3], the “Rabbit Psoas EC25 (Y75 value)” value stood at 100 µM.
Consider `CC(NC(=O)Cn1c(=O)[nH]c2ccccc2c1=O)c1ncc(F)cc1F` (centres unmarked) [Compound 47, N-(1-(3,5-difluoropyridin-2-yl)ethyl)-2-(2,4-dioxo-1,4-dihydroquinazolin-3(2H)-yl)acetamide], for which, in assay [1], the “Porcine Atria EC25 (Y75 value)” value is 1.442 µM. Besides, the “Porcine Ventricle EC25 (Y75 value)” value in assay [2] worked out at 100 µM. Besides, the “Rabbit Psoas EC25 (Y75 value)” value in assay [3] is 1.97 µM.
In the case of `COc1ccc2c(=O)n(CC(=O)N[C@@H](C)c3ccc(F)cc3F)c(=O)[nH]c2c1` [Compound 142, (S)-N-(1-(2,4-difluorophenyl)ethyl)-2-(7-methoxy-2,4-dioxo-1,4-dihydroquinazolin-3(2H)-yl)acetamide], the “Porcine Atria EC25 (Y75 value)” value in assay [1] was 100 µM. Further, the “Porcine Ventricle EC25 (Y75 value)” value in assay [2] came out at 100 µM. The “Rabbit Psoas EC25 (Y75 value)” value in assay [3] was determined as 100 µM.
Turning to `C[C@H](NC(=O)Cn1c(=O)[nH]c2cncnc2c1=O)c1ccc(F)cc1F` [Compound 96, (S)-N-(1-(2,4-difluorophenyl)ethyl)-2-(2,4-dioxo-1,4-dihydropyrimido[5,4-d]pyrimidin-3(2H)-yl)acetamide], in assay [1], the “Porcine Atria EC25 (Y75 value)” value worked out at 100 µM. Moreover, the “Porcine Ventricle EC25 (Y75 value)” value in assay [2] stood at 100 µM. Further, in assay [3], the “Rabbit Psoas EC25 (Y75 value)” value is 100 µM.
Turning to `C[C@H](NC(=O)Cn1c(=O)[nH]c2ccc(F)c(C#N)c2c1=O)c1ncc(C#N)cc1F` (single isomer, unassigned) [Compound 3002], in assay [1], the “Porcine Atria EC25 (Y75 value)” value was 0.11 µM. In addition, in assay [2], the “Porcine Ventricle EC25 (Y75 value)” value turned out to be 0.24 µM.
`C[C@@H](NC(=O)Cn1c(=O)[nH]c2ccc(F)c(C#N)c2c1=O)c1ncc(C#N)cc1F` (single isomer, unassigned) [Compound 3001]: the “Porcine Atria EC25 (Y75 value)” value in assay [1] stood at 5.34 µM. Moreover, the “Porcine Ventricle EC25 (Y75 value)” value in assay [2] was determined as 100.00 µM.
For `O=C(Cn1c(=O)[nH]c2ccccc2c1=O)NCCc1ccccc1Cl` [Compound 5008, N-(2-chlorophenethyl)-2-(2,4-dioxo-1,4-dihydroquinazolin-3(2H)-yl)acetamide], the “Rabbit Psoas EC25 (Y75 value)” value in assay [3] came out at 100 µM.
`C[C@H](NC(=O)Cn1c(=O)[nH]c2cccc(Cl)c2c1=O)c1ccc(F)cc1F` [Compound 136, (S)-2-(5-chloro-2,4-dioxo-1,4-dihydroquinazolin-3(2H)-yl)-N-(1-(2,4-difluorophenyl)ethyl)acetamide]: the “Porcine Ventricle EC25 (Y75 value)” value in assay [2] was determined as 0.256 µM. Further, the “Rabbit Psoas EC25 (Y75 value)” value in assay [3] stood at 0.591 µM.
For `O=C(Cn1c(=O)[nH]c2ccccc2c1=O)NCc1ccccn1` [Compound 5005, 2-(2,4-dioxo-1,4-dihydroquinazolin-3(2H)-yl)-N-(pyridin-2-ylmethyl)acetamide], the “Rabbit Psoas EC25 (Y75 value)” value in assay [3] came out at 100 µM.
For the compound `O=C(Cn1c(=O)[nH]c2ccccc2c1=O)NCc1ccncc1` [Compound 5007, 2-(2,4-dioxo-1,4-dihydroquinazolin-3(2H)-yl)-N-(pyridin-4-ylmethyl)acetamide], in assay [3], the “Rabbit Psoas EC25 (Y75 value)” value came to 100 µM.
With `C[C@H](NC(=O)Cn1c(=O)[nH]c2ccccc2c1=O)c1ccc(F)cc1F` [Compound 167, (S)-N-(1-(2,4-difluorophenyl)ethyl)-2-(2,4-dioxo-1,4-dihydroquinazolin-3(2H)-yl)acetamide], the “Porcine Ventricle EC25 (Y75 value)” value in assay [2] is 7.022 µM. The “Rabbit Psoas EC25 (Y75 value)” value in assay [3] came out at 0.52 µM.
Turning to `Cc1ccc2[nH]c(=O)n(CC(=O)N[C@H](C)c3ncc(C#N)cc3F)c(=O)c2c1F` (single isomer, unassigned) [Compound 3003], in assay [1], the “Porcine Atria EC25 (Y75 value)” value is 1.32 µM. Moreover, in assay [2], the “Porcine Ventricle EC25 (Y75 value)” value came out at 63.05 µM.
Take `O=C(Cn1c(=O)[nH]c2ccccc2c1=O)NCc1ccc(Cn2cccn2)cc1` [Compound 5004, N-(4-((1H-pyrazol-1-yl)methyl)benzyl)-2-(2,4-dioxo-1,4-dihydroquinazolin-3(2H)-yl)acetamide]: the “Rabbit Psoas EC25 (Y75 value)” value in assay [3] is 100 µM.
Same read-out and setting: the result for `O=C(Cn1c(=O)[nH]c2ccccc2c1=O)NCc1cccnc1` [Compound 5006, 2-(2,4-dioxo-1,4-dihydroquinazolin-3(2H)-yl)-N-(pyridin-3-ylmethyl)acetamide] reads 100 µM; that for `C[C@H](NC(=O)Cn1c(=O)[nH]c2ccccc2c1=O)c1cccc2ccccc12` (single isomer, unassigned) [Compound 5002], 100 µM.
On to `CC(NC(=O)Cn1c(=O)[nH]c2ccccc2c1=O)C1CCCCC1` (centres unmarked) [Compound 5003, N-(1-cyclohexylethyl)-2-(2,4-dioxo-1,4-dihydroquinazolin-3(2H)-yl)acetamide], for which, in assay [3], the “Rabbit Psoas EC25 (Y75 value)” value came to 100 µM.
With `Cc1ccc2[nH]c(=O)n(CC(=O)N[C@@H](C)c3ncc(C#N)cc3F)c(=O)c2c1F` (single isomer, unassigned) [Compound 3004], in assay [1], the “Porcine Atria EC25 (Y75 value)” value is 0.18 µM. Moreover, in assay [2], the “Porcine Ventricle EC25 (Y75 value)” value stood at 0.51 µM.
As for `CC(NC(=O)Cn1c(=O)[nH]c2ccccc2c1=O)C1CN(C)CCO1` (centres unmarked) [Compound 5001, 2-(2,4-dioxo-1,4-dihydroquinazolin-3(2H)-yl)-N-(1-(4-methylmorpholin-2-yl)ethyl)acetamide], in assay [3], the “Rabbit Psoas EC25 (Y75 value)” value was 100 µM.

The record behind these values is US12559464B2, “Quinazolinone dione compounds and uses thereof” (Edgewise Therapeutics, Inc., priority 2023, dated 2026).
